The source made the active and inactive calls. The calls are words filed in the database; no cut-off is given here.
Legend:
Rattus norvegicus [1] = experiment: Antiarthritic activity in type 2 collagen-induced Lewis rat arthritis model assessed as reduction in ankle diameter at 10 to 60 mg/kg, po administered every 12 hrs for 16 days measured on day 9 of compound dosing to day 17 of post last dose relative to vehicle-treated control; type: functional, organism-based
Rattus norvegicus [2] = experiment: Antiarthritic activity in type 2 collagen-induced po dosed Lewis rat arthritis model assessed as reduction in bone resorption in knee administered every 12 hrs for 16 days measured on day 17 of post last dose by toluidine blue staining-based assay; type: functional, organism-based
Rattus norvegicus [3] = experiment: Antiarthritic activity in type 2 collagen-induced po dosed Lewis rat arthritis model assessed as reduction in knee inflammation administered every 12 hrs for 16 days measured on day 17 of post last dose by toluidine blue staining-based assay; type: functional, organism-based
Rattus norvegicus [4] = experiment: Antiarthritic activity in type 2 collagen-induced Lewis rat arthritis model assessed as reduction in serum anti-type 2 collagen levels at 60 mg/kg, po administered every 12 hrs for 16 days measured on day 17 of post last dose by ELISA relative to control; type: functional; parameters: scale not given: the % may be the effect or the level left
Rattus norvegicus [5] = experiment: Antiarthritic activity in type 2 collagen-induced po dosed Lewis rat arthritis model assessed as reduction in knee pannus administered every 12 hrs for 16 days measured on day 17 of post last dose by toluidine blue staining-based assay; type: functional, organism-based
Homo sapiens = organism: Homo sapiens; experiment: Inhibition of allergen-induced activation of basophilic granulocytes in human whole blood preincubated for 20 mins followed by allergen induction measured after 20 mins using sub micromolar range of compound by basotest assay; type: functional, tissue-based
PI3K p110 beta/p85 alpha = PI3K p110 beta/p85 alpha (Homo sapiens, UniProt P42338); experiment: Inhibition of N-terminal His6-tagged recombinant full-length human p110beta/untagged recombinant full length p85alpha expressed in baculovirus infected Sf21 cells using phosphatidylinositol as substrate in presence of gamma-32P-ATP after 5 mins by thin layer chromatographic method
Rattus norvegicus [6] = experiment: Antiarthritic activity in type 2 collagen-induced po dosed Lewis rat arthritis model assessed as reduction in cartilage damage in knee administered every 12 hrs for 16 days measured on day 17 of post last dose by toluidine blue staining-based assay; type: functional, organism-based
[7] = target: RAC-alpha serine/threonine-protein kinase (Mus musculus) (UniProt P31750); experiment: […] of anti-CD3-stimulated Akt phosphorylation in mouse unfractionated splenocytes preincubated for 15 mins followed by anti-CD3 stimulation measured after 5 to 15 mins by phosflow method; type: cell-based
[8] = target: Phosphatidylinositol 3-kinase (Mus musculus) (UniProt P26450+P42337); experiment: Inhibition of PI3K in mouse unfractionated splenocytes assessed as decrease in anti-CD3-stimulated Akt phosphorylation at S473 preincubated for 15 mins followed by anti-CD3 stimulation measured after 5 to 15 mins by phosflow method; type: cell-based
[9] = target: RAC-alpha serine/threonine-protein kinase (Homo sapiens) (UniProt P31749); experiment: […] of anti-CD3-stimulated Akt phosphorylation in human PBMC preincubated for 15 mins followed by anti-CD3 stimulation measured after 5 to 15 mins by phosflow method
[10] = target: PI3-kinase class I (Homo sapiens) (UniProt P27986+P42338+P48736+P42336+O00459+O00329+Q8WYR1+Q92569); experiment: Inhibition of PI3K in human PBMC assessed as decrease in anti-CD3-stimulated Akt phosphorylation at S473 preincubated for 15 mins followed by anti-CD3 stimulation measured after 5 to 15 mins by phosflow method
[11] = Antiproliferative activity against Balb/c mouse splenic B cells preincubated for 30 mins followed by LPS or F(ab')2 donkey anti-mouse IgM and recombinant mouse IL4 stimulation measured after 72 hrs by Alamar Blue reduction assay; type: functional, cell-based
[12] = target: PI3-kinase p110-alpha/p85-alpha (Homo sapiens, UniProt P42336); experiment: Inhibition of N-terminal His6-tagged recombinant full-length human p110alpha/untagged recombinant full length human p85alpha expressed in baculovirus infected Sf21 cells using phosphatidylinositol as substrate in presence of gamma-32P-ATP after 5 mins by thin layer chromatographic method
[13] = target: Phosphatidylinositol 4,5-bisphosphate 3-kinase catalytic subunit gamma isoform (Homo sapiens, UniProt P48736); experiment: Inhibition of recombinant human C-terminal His6-tagged p110gamma expressed in insect cells using phosphatidylinositol as substrate in presence of gamma-32P-ATP after 5 mins by thin layer chromatographic method
[14] = target: PI3-kinase p110-delta/p85-alpha (Homo sapiens, UniProt O00329); experiment: Inhibition of N-terminal His6-tagged recombinant full-length human p110delta/untagged recombinant full length p85alpha expressed in baculovirus infected Sf21 cells using phosphatidylinositol as substrate in presence of gamma-32P-ATP after 5 mins by thin layer chromatographic method
Sequence of PI3-kinase p110-delta/p85-alpha (P27986 whole entry): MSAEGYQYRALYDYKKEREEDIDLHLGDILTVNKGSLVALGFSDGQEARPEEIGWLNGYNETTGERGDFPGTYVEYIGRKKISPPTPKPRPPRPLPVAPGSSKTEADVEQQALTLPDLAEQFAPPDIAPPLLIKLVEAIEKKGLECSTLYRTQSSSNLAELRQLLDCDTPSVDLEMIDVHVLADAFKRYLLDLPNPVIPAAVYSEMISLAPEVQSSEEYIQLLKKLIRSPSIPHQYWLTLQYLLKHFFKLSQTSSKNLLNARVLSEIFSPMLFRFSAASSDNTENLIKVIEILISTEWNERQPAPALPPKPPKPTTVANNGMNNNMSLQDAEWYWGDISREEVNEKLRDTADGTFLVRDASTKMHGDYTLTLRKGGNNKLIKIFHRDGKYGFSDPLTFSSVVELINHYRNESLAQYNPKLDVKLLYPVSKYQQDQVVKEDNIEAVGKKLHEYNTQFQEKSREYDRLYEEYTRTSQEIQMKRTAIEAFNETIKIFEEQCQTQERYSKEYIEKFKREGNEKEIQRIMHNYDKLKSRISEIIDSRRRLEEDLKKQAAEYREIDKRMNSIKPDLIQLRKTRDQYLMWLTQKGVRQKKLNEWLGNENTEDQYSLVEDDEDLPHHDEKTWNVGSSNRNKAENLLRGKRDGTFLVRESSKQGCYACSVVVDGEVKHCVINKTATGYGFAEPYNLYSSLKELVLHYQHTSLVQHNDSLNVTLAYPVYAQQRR
Sequence of PI3-kinase p110-delta/p85-alpha (O00329 whole entry): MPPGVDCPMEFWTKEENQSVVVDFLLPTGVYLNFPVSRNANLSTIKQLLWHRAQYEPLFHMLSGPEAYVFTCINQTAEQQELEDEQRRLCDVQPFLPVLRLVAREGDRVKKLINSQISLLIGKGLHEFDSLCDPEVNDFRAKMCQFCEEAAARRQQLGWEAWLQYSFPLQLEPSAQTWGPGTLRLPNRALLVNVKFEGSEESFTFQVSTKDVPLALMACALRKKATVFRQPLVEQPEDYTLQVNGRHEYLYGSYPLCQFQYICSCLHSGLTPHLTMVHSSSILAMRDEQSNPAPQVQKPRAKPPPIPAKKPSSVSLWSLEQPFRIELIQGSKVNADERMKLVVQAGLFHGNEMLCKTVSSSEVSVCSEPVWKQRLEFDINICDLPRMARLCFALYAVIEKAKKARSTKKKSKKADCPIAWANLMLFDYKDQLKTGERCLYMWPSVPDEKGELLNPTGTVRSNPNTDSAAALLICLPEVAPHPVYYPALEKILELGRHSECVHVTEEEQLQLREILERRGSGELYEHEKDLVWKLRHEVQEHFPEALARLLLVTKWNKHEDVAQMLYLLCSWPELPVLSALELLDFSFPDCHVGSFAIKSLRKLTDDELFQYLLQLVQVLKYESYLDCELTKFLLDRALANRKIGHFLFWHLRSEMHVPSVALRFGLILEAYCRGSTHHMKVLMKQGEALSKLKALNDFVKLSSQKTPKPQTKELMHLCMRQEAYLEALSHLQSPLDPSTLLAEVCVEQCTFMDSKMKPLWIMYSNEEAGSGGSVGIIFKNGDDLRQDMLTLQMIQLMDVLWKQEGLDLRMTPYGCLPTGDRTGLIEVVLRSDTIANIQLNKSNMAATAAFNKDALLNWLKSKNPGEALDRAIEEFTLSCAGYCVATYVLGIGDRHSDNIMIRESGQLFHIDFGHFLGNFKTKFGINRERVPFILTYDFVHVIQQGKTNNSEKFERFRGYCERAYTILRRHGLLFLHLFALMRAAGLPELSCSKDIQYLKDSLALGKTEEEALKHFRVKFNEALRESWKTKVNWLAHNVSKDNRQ

Sequence of Phosphatidylinositol 4,5-bisphosphate 3-kinase catalytic subunit gamma isoform (P48736 whole entry, canonical isoform): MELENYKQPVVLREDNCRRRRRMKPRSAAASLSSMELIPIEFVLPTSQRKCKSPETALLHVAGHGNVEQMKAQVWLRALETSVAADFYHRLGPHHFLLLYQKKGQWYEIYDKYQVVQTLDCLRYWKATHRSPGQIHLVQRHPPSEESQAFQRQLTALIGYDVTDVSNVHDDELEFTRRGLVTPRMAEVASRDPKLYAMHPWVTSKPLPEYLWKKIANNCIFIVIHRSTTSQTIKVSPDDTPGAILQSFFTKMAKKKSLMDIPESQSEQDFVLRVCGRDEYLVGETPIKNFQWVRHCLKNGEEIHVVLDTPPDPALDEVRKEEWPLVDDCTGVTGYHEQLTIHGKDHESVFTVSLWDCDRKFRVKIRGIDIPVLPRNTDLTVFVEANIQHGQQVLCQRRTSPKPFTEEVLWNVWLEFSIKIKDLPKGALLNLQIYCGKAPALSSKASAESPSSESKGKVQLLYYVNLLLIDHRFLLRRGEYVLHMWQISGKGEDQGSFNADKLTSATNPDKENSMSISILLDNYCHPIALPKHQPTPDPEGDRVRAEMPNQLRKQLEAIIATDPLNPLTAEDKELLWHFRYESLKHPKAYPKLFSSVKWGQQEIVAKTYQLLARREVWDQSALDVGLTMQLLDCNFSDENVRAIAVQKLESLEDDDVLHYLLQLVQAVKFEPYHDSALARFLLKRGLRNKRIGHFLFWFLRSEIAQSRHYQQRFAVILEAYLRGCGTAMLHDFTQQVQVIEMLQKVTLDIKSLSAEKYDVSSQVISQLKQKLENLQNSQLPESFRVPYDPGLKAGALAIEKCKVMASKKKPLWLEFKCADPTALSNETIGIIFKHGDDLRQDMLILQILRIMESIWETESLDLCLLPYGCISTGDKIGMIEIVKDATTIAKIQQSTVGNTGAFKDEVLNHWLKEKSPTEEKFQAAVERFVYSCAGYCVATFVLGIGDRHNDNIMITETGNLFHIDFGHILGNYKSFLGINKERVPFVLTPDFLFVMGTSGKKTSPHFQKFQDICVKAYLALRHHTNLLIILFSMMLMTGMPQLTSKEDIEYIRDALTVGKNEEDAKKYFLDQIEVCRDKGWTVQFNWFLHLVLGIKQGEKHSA
Sequence of PI3-kinase p110-alpha/p85-alpha (P27986 whole entry, canonical isoform): as the sequence (P27986 whole entry) above
Sequence of PI3-kinase p110-alpha/p85-alpha (P42336 whole entry, canonical isoform): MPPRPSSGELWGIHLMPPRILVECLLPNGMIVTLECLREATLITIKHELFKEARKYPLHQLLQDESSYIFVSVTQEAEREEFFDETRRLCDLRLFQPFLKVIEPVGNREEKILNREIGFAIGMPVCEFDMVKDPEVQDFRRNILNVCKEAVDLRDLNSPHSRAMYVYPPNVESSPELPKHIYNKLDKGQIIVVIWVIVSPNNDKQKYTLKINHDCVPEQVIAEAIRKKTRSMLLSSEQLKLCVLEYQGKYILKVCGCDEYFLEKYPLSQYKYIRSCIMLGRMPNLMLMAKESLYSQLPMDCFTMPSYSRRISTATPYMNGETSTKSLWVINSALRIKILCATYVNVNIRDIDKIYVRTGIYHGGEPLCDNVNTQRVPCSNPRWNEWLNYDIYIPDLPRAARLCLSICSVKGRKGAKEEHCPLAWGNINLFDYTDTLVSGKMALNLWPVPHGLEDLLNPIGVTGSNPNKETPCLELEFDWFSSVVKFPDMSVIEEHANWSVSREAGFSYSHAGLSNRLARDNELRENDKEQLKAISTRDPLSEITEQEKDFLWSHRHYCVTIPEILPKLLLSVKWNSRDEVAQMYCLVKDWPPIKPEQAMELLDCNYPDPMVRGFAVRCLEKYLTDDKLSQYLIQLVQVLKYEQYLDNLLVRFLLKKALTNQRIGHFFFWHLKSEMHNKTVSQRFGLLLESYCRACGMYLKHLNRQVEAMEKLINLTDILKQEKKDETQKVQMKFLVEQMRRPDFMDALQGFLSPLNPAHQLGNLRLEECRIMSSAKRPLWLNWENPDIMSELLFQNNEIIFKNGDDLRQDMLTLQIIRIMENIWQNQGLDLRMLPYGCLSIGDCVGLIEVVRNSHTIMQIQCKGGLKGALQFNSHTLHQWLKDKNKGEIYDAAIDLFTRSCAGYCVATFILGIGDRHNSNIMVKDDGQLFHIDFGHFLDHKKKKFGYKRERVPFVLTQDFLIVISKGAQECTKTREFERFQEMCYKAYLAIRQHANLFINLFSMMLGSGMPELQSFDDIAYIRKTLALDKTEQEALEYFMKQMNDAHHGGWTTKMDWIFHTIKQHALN
Sequence of PI3K p110 beta/p85 alpha (P27986 whole entry): as the sequence (P27986 whole entry) above
Sequence of PI3K p110 beta/p85 alpha (P42338 whole entry): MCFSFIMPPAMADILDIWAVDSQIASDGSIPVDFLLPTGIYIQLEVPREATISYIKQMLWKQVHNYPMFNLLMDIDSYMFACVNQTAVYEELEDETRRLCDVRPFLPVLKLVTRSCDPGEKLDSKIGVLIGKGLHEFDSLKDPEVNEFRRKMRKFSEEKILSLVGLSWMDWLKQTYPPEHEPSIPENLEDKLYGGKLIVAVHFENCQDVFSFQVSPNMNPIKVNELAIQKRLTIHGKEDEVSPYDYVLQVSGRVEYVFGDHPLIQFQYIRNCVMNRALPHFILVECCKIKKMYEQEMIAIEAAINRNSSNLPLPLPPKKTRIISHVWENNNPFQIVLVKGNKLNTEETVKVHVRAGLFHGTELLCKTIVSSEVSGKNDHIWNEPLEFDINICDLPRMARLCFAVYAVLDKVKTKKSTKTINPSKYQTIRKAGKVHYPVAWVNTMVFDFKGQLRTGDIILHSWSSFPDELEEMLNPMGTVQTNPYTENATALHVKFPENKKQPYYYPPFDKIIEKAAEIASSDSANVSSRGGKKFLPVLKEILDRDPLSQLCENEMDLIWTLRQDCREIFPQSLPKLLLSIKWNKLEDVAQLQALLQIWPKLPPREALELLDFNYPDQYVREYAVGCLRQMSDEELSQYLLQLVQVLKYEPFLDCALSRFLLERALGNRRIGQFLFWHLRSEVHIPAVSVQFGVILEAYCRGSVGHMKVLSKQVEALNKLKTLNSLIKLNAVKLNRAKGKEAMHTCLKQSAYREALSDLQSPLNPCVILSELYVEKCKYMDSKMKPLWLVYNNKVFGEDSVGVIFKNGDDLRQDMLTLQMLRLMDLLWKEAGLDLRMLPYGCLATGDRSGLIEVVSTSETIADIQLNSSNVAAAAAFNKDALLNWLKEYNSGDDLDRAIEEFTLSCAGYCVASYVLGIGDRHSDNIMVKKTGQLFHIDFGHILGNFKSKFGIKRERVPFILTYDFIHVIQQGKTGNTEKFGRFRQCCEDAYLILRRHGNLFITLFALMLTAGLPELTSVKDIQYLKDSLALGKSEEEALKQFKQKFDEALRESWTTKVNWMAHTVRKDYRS

Row | SMILES | IC50 (PI3K p110 beta/p85 alpha) | EC50 [11] | IC50 [12] | IC50 [13] | IC50 [14] | other results
1 | Cc1ccccc1-n1c(Cn2nc(-c3cc(O)cc(F)c3)c3c(N)ncnc32)cc2cccc(C)c2c1=O | < 1 µM | – | – | – | – | Activity (Rattus norvegicus [1]): Active; Activity (Rattus norvegicus [2]): Dose-dependent effect; Activity (Rattus norvegicus [3]): Dose-dependent effect; Activity (Rattus norvegicus [4]): 24%; Activity (Rattus norvegicus [5]): Dose-dependent effect; inhibition (Homo sapiens): Active; Activity (Rattus norvegicus [6]): Dose-dependent effect
2 | CO[C@H]1C[C@@H]2CC[C@@H](C)[C@@](O)(O2)C(=O)C(=O)N2CCCC[C@H]2C(=O)O[C@H]([C@H](C)C[C@@H]2CC[C@@H](O)[C@H](OC)C2)CC(=O)[C@H](C)/C=C(\C)[C@@H](O)[C@@H](OC)C(=O)[C@H](C)C[C@H](C)/C=C/C=C/C=C/1C | – | – | – | – | – | Activity [7]: Active; inhibition [8]: Active; Activity [9]: Active; inhibition [10]: Active
3 | Cc1ccccc1-n1c(Cn2nc(C#C[C@@H](C)O)c3c(N)ncnc32)cc2cccc(F)c2c1=O | > 10 µM | < 10 µM | > 10 µM | > 10 µM | < 1 µM | –
4 | Cc1ccccc1-n1c(Cn2nc(C#N)c3c(N)ncnc32)cc2cccc(C)c2c1=O | > 10 µM | < 0.1 µM | > 10 µM | < 10 µM | < 0.1 µM | –
5 | Cc1cccc2cc(Cn3nc(-c4cnn(CCO)c4)c4c(N)ncnc43)n(-c3ccccc3F)c(=O)c12 | > 10 µM | 1 to 10 µM | > 10 µM | < 1 µM | < 0.1 µM | –
6 | Cc1cccc2cc(Cn3nc(C#C[C@@H](C)O)c4c(N)ncnc43)n(C(C)C)c(=O)c12 | < 10 µM | < 1 µM | > 10 µM | < 10 µM | < 0.1 µM | –
7 | Cc1ccccc1-n1c(Cn2nc(/C=C/C(N)=O)c3c(N)ncnc32)cc2cccc(C)c2c1=O | < 10 µM | < 0.1 µM | > 10 µM | < 0.1 µM | < 0.1 µM | –
8 | Cc1cccnc1-n1c(Cn2nc(-c3cccc(O)c3)c3c(N)ncnc32)cc2cccc(C)c2c1=O | > 10 µM | < 0.1 µM | > 10 µM | < 1 µM | < 0.1 µM | –
9 | Cc1ccccc1-n1c(Cn2nc(-c3cccc(Cl)c3)c3c(N)ncnc32)cc2cccc(C)c2c1=O | > 10 µM | < 10 µM | > 10 µM | < 1 µM | < 10 µM | –
10 | Cc1cccnc1-n1c(Cn2nc(-c3cc(O)cc(F)c3)c3c(N)ncnc32)cc2ccccc2c1=O | > 10 µM | < 0.1 µM | > 10 µM | < 1 µM | < 0.1 µM | –
11 | Cc1cccc2cc(Cn3nc(-c4ccc(F)c(O)c4)c4c(N)ncnc43)n(-c3ccccc3F)c(=O)c12 | > 10 µM | < 1 µM | > 10 µM | < 1 µM | < 0.1 µM | –
12 | Cc1cccc2cc(Cn3nc(Br)c4c(N)ncnc43)n(-c3ccccc3F)c(=O)c12 | > 10 µM | < 1 µM | > 10 µM | < 10 µM | < 1 µM | –
13 | Cc1cccc2cc(Cn3nc(C#C[C@@H](C)O)c4c(N)ncnc43)n(-c3ccccc3F)c(=O)c12 | > 10 µM | < 1 µM | > 10 µM | < 1 µM | < 0.1 µM | –
14 | Cc1ccccc1-n1c(Cn2nc(-c3cn[nH]c3)c3c(N)ncnc32)cc2ccccc2c1=O | > 10 µM | < 0.1 µM | > 10 µM | < 10 µM | < 1 µM | –
15 | Cc1ccccc1-n1c(Cn2nc(-c3cccc(F)c3)c3c(N)ncnc32)cc2cccc(C)c2c1=O | > 10 µM | < 1 µM | > 10 µM | < 1 µM | < 10 µM | –
16 | Cc1cccc2cc(Cn3nc(I)c4c(N)ncnc43)n(C)c(=O)c12 | > 10 µM | < 1 µM | > 10 µM | < 10 µM | < 1 µM | –
17 | Cc1cccnc1-n1c(Cn2nc(C#C[C@@H](C)O)c3c(N)ncnc32)cc2cccc(C)c2c1=O | > 10 µM | < 1 µM | > 10 µM | > 10 µM | < 1 µM | –
18 | Cc1cccc2cc(Cn3nc(C#C[C@@H](C)O)c4c(N)ncnc43)n(-c3ccccc3Cl)c(=O)c12 | > 10 µM | < 1 µM | > 10 µM | < 1 µM | < 0.1 µM | –
19 | Cc1cccc2cc(Cn3nc(-c4cccc(F)c4)c4c(N)ncnc43)n(-c3ccccc3F)c(=O)c12 | > 10 µM | < 10 µM | > 10 µM | < 10 µM | < 10 µM | –
20 | Cc1cccc2cc(Cn3nc(Cl)c4c(N)ncnc43)n(-c3ccccc3F)c(=O)c12 | > 10 µM | < 1 µM | > 10 µM | < 10 µM | < 1 µM | –
21 | Cc1ccccc1-n1c(Cn2nc(I)c3c(N)ncnc32)cc2cccc(F)c2c1=O | > 10 µM | < 1 µM | > 10 µM | < 10 µM | < 1 µM | –
22 | Cc1cccc2cc(Cn3nc(C#N)c4c(N)ncnc43)n(-c3ccccc3F)c(=O)c12 | > 10 µM | < 1 µM | > 10 µM | > 10 µM | < 0.1 µM | –

Source: ChEMBL document CHEMBL3879901, “Substituted isoquinolin-1(2H)-ones, and methods of use thereof” (2012)
